Source: patent US20120321637A1, “COMBINATION CANCER THERAPY WITH HERV INHIBITION” (The Board of Regents of the University of Texas System, priority 2011, published 2012)

How the values were obtained:
[1] = test system: A101D cell line; conditions: human, 48 h, 1000 µM
Experimental: The A101D cell line was treated with various combinations of PD98059 (P), 219476 (C), and AZT (A) for 48hrs after which the MTS assay was done.
CellTiter 96 Aqueous One Solution Cell Proliferation Assay (MTS, Promega) was used to measure total vial cells following manufacturer's instructions. 5,000 melanoma cells were seeded in each well of 96-well plates, and were grown for 24 hrs in media with 10% Fetal Bovine Serum (FBS). After that period, media were aspirated and various combinations of treatments were added to each well in media without serum. Based on dose-response analyses, the final concentrations used were: PD90895 at 25 μM; 219476 at 1 μM; AZT at 1000 μM. The plates were incubated for a period of 24 hrs, 48hrs, and 72 hrs, respectively. Then, the MTS solution was added to each well according to the manufacturers protocol. The plates were again incubated for 2-4 hrs, after which absorbance was measured at 490 nm. Data were analyzed and compared for treatment efficiency.

[2] = test system: BRAF mutant metastatic melanomas; conditions: phase I clinical trial; cited from earlier work
[3] = test system: melanoma; conditions: monotherapy; cited from earlier work

## Cc1cn([C@H]2C[C@H](N=[N+]=[N-])[C@@H](CO)O2)c(=O)[nH]c1=O [AZT]
[1]
  viability: 87.4%

## CCCS(=O)(=O)Nc1ccc(F)c(C(=O)c2c[nH]c3ncc(-c4ccc(Cl)cc4)cc23)c1F [PLX4032]
[2]
  BRAF mutant metastatic melanomas regressed in response to treatment: approximately 80%

## CNC(=O)c1cc(Oc2ccc(NC(=O)Nc3ccc(Cl)c(C(F)(F)F)c3)cc2)ccn1 [sorafenib, 4-[4-[[4-chloro-3-(trifluoromethyl)phenyl]carbamoylamino]phenoxy]-N-methyl-pyridine-2-carboxamide]
[3]
  clinical benefit in melanoma patients: only shows marginal clinical benefit
